From doi:10.1101/487637v1, “Chemogenetic ligands for translational neurotheranostics” (biorxiv, 2018) come the findings set out here.

Experiment [1] has as its target T1, hM3Dq (Homo sapiens, UniProt P20309, Y149C/A239G).
T1 construct: gene CHRM3; human M3 muscarinic receptor DREADD; AAV plasmid Addgene #89149; transiently expressed in HEK-293 cells
As to the kind of experiment: [3H]clozapine competition, HEK-293 membranes. The experiment is classed as binding. The following applies: 2.5 nM [3H]clozapine, 50 mM Tris-HCl pH 7.4, 10 mM MgCl2, RT, 2 h.

Experiment [2] concerns the target T2, hM4Di (Homo sapiens, UniProt P08173, Y113C/A203G).
T2 construct: gene CHRM4; human M4 muscarinic receptor DREADD; AAV plasmid Addgene #89150; transiently expressed in HEK-293 cells; docking model prints Y113G/A203G, the standard DREADD is Y113C/A203G
T2 sequence (P08173 1-479 Y113C/A203G): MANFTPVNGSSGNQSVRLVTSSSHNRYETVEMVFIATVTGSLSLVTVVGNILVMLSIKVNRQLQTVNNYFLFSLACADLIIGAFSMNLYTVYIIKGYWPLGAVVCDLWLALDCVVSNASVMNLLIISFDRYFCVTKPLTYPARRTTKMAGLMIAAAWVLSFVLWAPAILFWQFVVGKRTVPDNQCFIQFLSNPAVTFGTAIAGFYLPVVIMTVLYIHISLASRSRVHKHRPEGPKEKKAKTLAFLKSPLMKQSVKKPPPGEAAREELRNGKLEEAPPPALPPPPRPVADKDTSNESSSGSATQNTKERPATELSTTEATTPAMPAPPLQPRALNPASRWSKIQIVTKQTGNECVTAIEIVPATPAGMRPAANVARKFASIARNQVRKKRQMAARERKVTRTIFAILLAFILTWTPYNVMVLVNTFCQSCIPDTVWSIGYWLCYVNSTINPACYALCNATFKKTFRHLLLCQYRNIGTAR
Description: [3H]clozapine competition, HEK-293 membranes. The experiment is classed as binding. As to conditions: 2.5 nM [3H]clozapine, 50 mM Tris-HCl pH 7.4, 10 mM MgCl2, RT, 2 h.

The target in experiment [3] is T3, hM3Dq (Homo sapiens, UniProt P20309, A239G/Y149C).
T3 construct: gene CHRM3; human M3 muscarinic receptor DREADD; AAV plasmid Addgene #89149; transiently expressed in HEK-293 cells
T3 sequence (P20309 whole entry Y149C/A239G): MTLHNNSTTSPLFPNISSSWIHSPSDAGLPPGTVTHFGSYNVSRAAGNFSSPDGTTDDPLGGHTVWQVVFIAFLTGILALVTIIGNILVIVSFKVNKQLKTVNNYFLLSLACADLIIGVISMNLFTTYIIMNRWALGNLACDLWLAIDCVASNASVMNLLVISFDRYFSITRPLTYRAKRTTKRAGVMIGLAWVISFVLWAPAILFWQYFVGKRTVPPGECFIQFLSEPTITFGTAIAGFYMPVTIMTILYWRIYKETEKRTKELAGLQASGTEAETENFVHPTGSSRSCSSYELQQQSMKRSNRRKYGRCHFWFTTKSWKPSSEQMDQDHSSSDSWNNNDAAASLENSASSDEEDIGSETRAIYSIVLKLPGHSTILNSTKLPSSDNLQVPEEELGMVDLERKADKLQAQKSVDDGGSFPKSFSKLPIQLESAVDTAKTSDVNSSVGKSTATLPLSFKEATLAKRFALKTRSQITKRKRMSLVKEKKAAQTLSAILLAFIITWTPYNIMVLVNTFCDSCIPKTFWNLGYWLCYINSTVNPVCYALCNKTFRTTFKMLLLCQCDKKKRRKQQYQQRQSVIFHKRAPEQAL
As to the kind of experiment: [3H]clozapine competition, HEK-293 membranes. In kind it is binding.

The target of experiment [4] is T4, hM4Di (Homo sapiens, UniProt P08173, A203G/Y113C).
T4 construct: gene CHRM4; human M4 muscarinic receptor DREADD; AAV plasmid Addgene #89150; transiently expressed in HEK-293 cells; docking model prints Y113G/A203G, the standard DREADD is Y113C/A203G
T4 sequence (P08173 1-479 Y113C/A203G): T2 sequence (P08173 1-479 Y113C/A203G)
Description: [3H]clozapine competition, HEK-293 membranes. The experiment is classed as binding.

The target in experiment [5] is T2, hM4Di. Description: BRET Galpha-o1 activation, HEK-293. In kind it is cell-based. The following applies: agonist; PBS; Galpha-Rluc8, beta1, gamma2-mVenus.

T1 sequence (P20309 whole entry Y149C/A239G): as above

As for `CCN1CCN(C2=Nc3cc(Cl)ccc3Nc3ccccc32)CC1` [C13, Compound 13], the inhibition constant Ki at hM3Dq [1] and on hM4Di [2] was 4.3 nM in each case.

In the case of `c1ccc2c(c1)N=C(N1CCNCC1)c1ccccc1N2` [C21, Compound 21], the Ki at hM3Dq [3] is 230 nM; at hM4Di [4] it was 91 nM. Also, at hM4Di [5], the EC50 entry was “C21 was less potent than clozapine at Gi/o activation in cells or tissue expressing hM4Di”.

In the case of `CN1CCN(C2=Nc3cc(Cl)ccc3Nc3ccccc32)CC1` [CLZ, clozapine], at hM4Di [5], the EC50 result is “C21 was less potent than clozapine at Gi/o activation in cells or tissue expressing hM4Di”.
